Patent US8273724B2, “Melanoma antigens and their use in diagnostic and therapeutic methods” (The United States of America, as represented by the …, priority 1994, dated 2012)
Like-named read-outs stand apart in the source and are kept apart here. Where a SMILES comes first, the peptide text is derived from it.

Columns and labels:
HLA-A2.1 [1] = molecular target: T1, HLA-A2.1 (Homo sapiens, UniProt P04439, D140Y/D185E/D98H/E176V/E277Q/G131W/G231S/I119V/I121R/I166T/I218V/L300P/L318F/N151K/N90K/P208A/P217A/Q86G/Q94H/R138H/R169H/T345S); test: Peptide binding assay to HLA-A2.1, competition with radiolabeled HBc18-27 (Example 4)
HLA-A2.1 [2] = molecular target: T1, HLA-A2.1; test: HLA-A2.1 binding assay of modified peptides, inhibition of radiolabeled Hbc 18-27 (Example 5); settings: natural epitopes
T2 cells = test: Induction of peptide specific CTL from PBL, 51Cr release against T2 cells with or without peptide (Example 5); format: cell-based, human; settings: E:T = 3D40:1
Experimental: (§1) Induction of peptide specific CTL PBMC were separated from peripheral blood of HLA-A2+ melanoma patients and normal donors by centrifugation on Ficoll-Hypaque gradients and used as fresh or cryopreserved samples. […] Two days later, 12 IU/ml interleukin 2 (IL-2) (Chiron Co., Emeryville, Calif.) were added to the cultures. Lymphocytes were then restimulated weekly as follows: responder cells were harvested, washed once and replated in 24-well plates at a concentration of 2.5×10^5 cells/ml in CM. Autologous PBMC were thawed, washed twice in PBS, resuspended at 5-8×10^6 cells/ml in CM and pulsed with 1 ug/ml peptide in 15-ml conical tubes (5 ml/tube) for 3 hours at 37° C. These PBMC (stimulators) were then irradiated at 3000 rads, washed once in PBS and added to the responder cells at responder:stimulator ratios ranging between 1:3 and 1:10. The next day, 12 IU/ml IL-2 were added to the cultures. The activity of these CTL was tested by cytotoxicity assays after at least 2 rounds (14 days) of peptide stimulation. To generate CTL from TIL cultures, the dissociated tumor suspension were cultured for 1-2 days in 10% FCS RPMI-1640 medium to allow tumor cell adherence. The lymphocytes, recovered from the non-adherent fraction, were used for the induction of peptide specific CTL as described above.
(§2) Assessment of antigen recognition by CTL. ^51Cr release cytotoxic assays were performed to detect the recognition of peptide and melanoma cells by CTL. To analyze peptide recognition, T2 cell lines were preincubated for 2 h at 37° C. with 1 ug/ml peptide, washed and used as target cells in a ^51Cr release cytotoxic assay. The melanoma lines 624mel was established in our laboratory (See Example 1).

[3] = system: 624mel melanoma cell line; test: Induction of peptide specific CTL from PBL, 51Cr release against melanoma cells (Example 5); format: cell-based, human; settings: target 624mel; E:T = 3D40:1; after 4 stimulations (Table 20)
Experimental: as §1, §2

HLA-A2.1+ T2 cells = settings: for TIL that recognize the peptide: cytotoxicity assays, T2 preincubated with peptide
[4] = system: T2 cell lines preincubated with peptide; test: Recognition of modified peptides by natural epitope (M9-2, G9-154, G9-209, G9-280) reactive T-cells, 51Cr release on peptide-pulsed T2 cells (Example 5); format: cell-based, human
In short: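 T2 target cells were pulsed with 1 ug/ml peptide for 2 h at 37° C., then washed. CTL recognition was measured by ^51Cr release cytotoxicity.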

[5] = system: T2 cells preincubated with peptides; test: IFN-γ / cytokine release by TIL incubated with T2 cells preincubated with peptides; format: cell-based, human; settings: T2 cells preincubated with peptide; data not shown
[6] = Exp. 1, peptide 1 ug/ml, TIL 620-1
[7] = Exp. 1, peptide 1 ug/ml, TIL 620-2
[8] = Exp. 1, peptide 1 ug/ml, TIL 660-1
[9] = Exp. 1, peptide 1 ug/ml, TIL 1143
[10] = Exp. 1, peptide 1 ug/ml, TIL 1200
[11] = Exp. 1, peptide 1 ug/ml, TIL 1235
[12] = Exp. 3, peptide 1 ug/ml, TIL 660-3
[13] = Exp. 3, peptide 1 ug/ml, TIL 1143
[14] = Exp. 3, peptide 1 ug/ml, TIL 1200
[15] = Exp. 3, peptide 1 ug/ml, TIL 1235

| Compound | % specific lysis at E:T = 40:1 (HLA-A2.1+ T2 cells; [6]) | % specific lysis at E:T = 40:1 (HLA-A2.1+ T2 cells; [7]) | % specific lysis at E:T = 40:1 (HLA-A2.1+ T2 cells; [8]) | % specific lysis at E:T = 40:1 (HLA-A2.1+ T2 cells; [9]) | % specific lysis at E:T = 40:1 (HLA-A2.1+ T2 cells; [10]) | % specific lysis at E:T = 40:1 (HLA-A2.1+ T2 cells; [11]) | % specific lysis at E:T = 40:1 (HLA-A2.1+ T2 cells; [12]) | % specific lysis at E:T = 40:1 (HLA-A2.1+ T2 cells; [13]) | % specific lysis at E:T = 40:1 (HLA-A2.1+ T2 cells; [14]) | % specific lysis at E:T = 40:1 (HLA-A2.1+ T2 cells; [15]) | TIL that recognize the peptide (HLA-A2.1+ T2 cells) | other results |
| --- | --- | --- | --- | --- | --- | --- | --- | --- | --- | --- | --- | --- |
| CC(C)C[C@H](NC(=O)[C@@H](N)Cc1ccc(O)cc1)C(=O)N[C@@H](CCC(=O)O)C(=O)N1CCC[C@H]1C(=O)NCC(=O)N1CCC[C@H]1C(=O)N[C@H](C(=O)N[C@H](C(=O)N[C@@H](C)C(=O)O)[C@@H](C)O)C(C)C [G9280] | 2% | 7% | 43% | 11% | 0% | 0% | 99% | 37% | 9% | 5% | recognized by TIL660 and TIL1143 | binding affinity class to HLA-A2.1 (HLA-A2.1 [1]): inteivediate; HLA-A2.1 binding, in words (HLA-A2.1 [2]): not high affinity binders; % specific lysis by PBL stimulated with the peptide (T2 cells; target T2 + G9-280-9V, after 4 stimulations): 8%; % specific lysis by PBL stimulated with the peptide (T2 cells; target T2 + G9-280, after 4 stimulations): 11%; % specific lysis by PBL stimulated with the peptide (T2 cells; target T2, after 4 stimulations (Table 20)): 3%; % specific lysis by PBL stimulated with the peptide [3]: 11%; number of gp100 reactive TIL recognizing the peptide (HLA-A2.1+ T2 cells; 4 gp100 reactive TIL from different patients): 2 of 4; % specific lysis at E:T = 40:1 (HLA-A2.1+ T2 cells; Exp. 2, peptide 1 ng/ml, TIL 620-1): 2%; % specific lysis at E:T = 40:1 (HLA-A2.1+ T2 cells; Exp. 2, peptide 1 ng/ml, TIL 620-2): 9%; % specific lysis at E:T = 40:1 (HLA-A2.1+ T2 cells; Exp. 2, peptide 1 ng/ml, TIL 660-2): 75%; % specific lysis at E:T = 40:1 (HLA-A2.1+ T2 cells; Exp. 2, peptide 1 ng/ml, TIL 1143): 34%; % specific lysis at E:T = 40:1 (HLA-A2.1+ T2 cells; Exp. 2, peptide 1 ng/ml, TIL 1200): 1%; % specific lysis at E:T = 40:1 (HLA-A2.1+ T2 cells; Exp. 2, peptide 1 ng/ml, TIL 1235): 2% |
| CC(C)C[C@H](NC(=O)[C@H](CCCNC(=N)N)NC(=O)[C@H](CC(C)C)NC(=O)[C@@H](NC(=O)[C@H](C)NC(=O)[C@@H](NC(=O)CNC(=O)[C@H](CC(=O)O)NC(=O)[C@H](CC(C)C)NC(=O)[C@@H](N)CC(C)C)[C@@H](C)O)[C@@H](C)O)C(=O)O [G10-4] | – | – | – | – | – | – | – | – | – | – | – | IC50 (HLA-A2.1 [1]): 483 nM |
| CC(C)C[C@H](NC(=O)[C@@H](N)C(C)C)C(=O)N[C@@H](Cc1ccc(O)cc1)C(=O)N[C@@H](CCCNC(=N)N)C(=O)N[C@@H](Cc1ccc(O)cc1)C(=O)NCC(=O)N[C@@H](CO)C(=O)N[C@@H](Cc1ccccc1)C(=O)N[C@@H](CO)C(=O)N[C@H](C(=O)O)C(C)C [G10-5] (H-VLYRYGSFSV-OH; N-terminus and C-terminus assumed) | 2% | 7% | 2% | 1% | 7% | 0% | 14% | 2% | 6% | 5% | TIL660-3 also recognized | IC50 (HLA-A2.1 [1]; binding to HLA-A2.1): 13 nM; Ratio to Standard: binding affinity of the sample peptide to that of the standard peptide (HLA-A2.1 [1]; standard peptide 50% inhibition at 5 nM): 0.38; lysis of T2 cells preincubated with the peptide (HLA-A2.1+ T2 cells): repeatedly low |
| CC[C@H](C)[C@H](NC(=O)CNC(=O)[C@H](C)NC(=O)[C@H](C)N)C(=O)NCC(=O)N[C@H](C(=O)N[C@@H](CC(C)C)C(=O)N[C@H](C(=O)N[C@H](C(=O)O)C(C)C)[C@@H](C)O)[C@@H](C)CC [M9-2] | – | – | – | – | – | – | – | – | – | – | – | Recognition by M9-2 reactive T-cell [4]: + (+, recognized); cytokine secretion (IFN-γ, GM-CSF, TNF-α) by 10 TIL and clone A42 [5]: secreted cytokines |
